Experimental findings from patent US12486256B2, “Crystal forms of crenolanib and methods of use thereof” (Arog Pharmaceuticals, Inc., priority 2020, dated 2025) are described below.

What all share (type): physicochemical
Series [1] is described as follows: Dynamic Vapor Sorption (DVS), hygroscopicity of polymorphic forms. The settings on record: for form change during DVS cycling / post-DVS (XRPD): XRPD of retained solid. How it is done:
Dynamic Vapor Sorption (DVS) was used to determine the hygroscopicity of stable polymorphic forms. Approximately 10-20 milligrams of sample was placed in to a mesh vapor sorption balance pan and loaded into an intrinsic dynamic vapor sorption balance by Surface Measurement Systems. The sample was subjected to ramping profile from 40-90% relative humidity (RH) at 10% increments, maintain the sample at each step until as table weight had been achieved (dm/dt 0.0004%, minimum step length 30 minutes, maximum step length 500 minutes) at 25° C. After completion of the sorption cycle, the sample was dried using the same procedure to 0% RH and then a second sorption cycle back to 40% RH. Two cycles were performed. The weight change during the sorption/desorption cycles were plotted, allowing for the hygroscopic nature of the sample tot be determined. XRPD was then carried out on any solid retained to determine if there was change between polymorphic forms during the process.

The nature of series [2]: Competitive slurry, thermodynamic stability of crystalline forms. As to conditions: competitive slurry conditions, Form III seeds present; monobenzenesulfonate.
Series [3] in a line: Solubility in aqueous solutions. The settings on record: aqueous solutions at neutral pH.
The nature of series [4]: TGA/DSC, thermal degradation. The settings on record: 10° C./min. The protocol:
Thermogravimetric Analysis/Differential Scanning calorimetry (TGA/DSC) was used to determine the phase transition and degradation points as well as the hydrated/solvated states of the various polymorphic forms identified. Approximately 5-10 milligrams of material was added into a pre-tared open aluminum pan and loaded into a TA Instruments SDT 650 Auto-Simultaneous DSC and held at room temperature. The sample was then heated at a rate of 10° C./min from 30° C. to 400° C. during which time the change in sample weight was recorded along with the heat flow response (DSC). Nitrogen was used as the sample purge gas, at a flow rate of 200 cm^3/min. Skilled artisans will appreciate that ambient laboratory conditions may cause slight variability in these readings.

Where [5] appears, read: DVS, 25° C., monobenzenesulfonate.
Setting [6] is: DVS at 90% relative humidity, 25° C., monobenzenesulfonate.

As for `CC1(COc2ccc3c(c2)ncn3-c2ccc3cccc(N4CCC(N)CC4)c3n2)COC1.O=S(=O)(O)c1ccccc1` [Form I, 1-[2-[5-[(3-Methyl-3-oxetanyl)methoxy]-1H-benzimidazol-1-yl]-8-quinolinyl]-4-piperidinamine monobenzenesulfonate], the “form change during DVS cycling / post-DVS (XRPD)” value in series [1] (monobenzenesulfonate) was “No form change”. Also, in series [1] (setting [5]), the hygroscopicity entry is reported as “non-hygroscopic”. For the same compound, the “thermodynamic stability / form conversion” value in series [2] is recorded as “will convert to Form III”.
As to `CC1(COc2ccc3c(c2)ncn3-c2ccc3cccc(N4CCC(N)CC4)c3n2)COC1.O=S(=O)(O)c1ccccc1` [Form III, 1-[2-[5-[(3-Methyl-3-oxetanyl)methoxy]-1H-benzimidazol-1-yl]-8-quinolinyl]-4-piperidinamine monobenzenesulfonate], the mass uptake result in series [1] (setting [6]) is “approximately 1.5%”. Also, the “form change during DVS cycling / post-DVS (XRPD)” value in series [1] (monobenzenesulfonate) is “No form change”. The hygroscopicity entry in series [1] (setting [5]) is reported as “slightly hygroscopic”. The “thermodynamic stability / form conversion” value in series [2] is recorded as “most thermodynamically stable crystalline form”.
`CC1(COc2ccc3c(c2)ncn3-c2ccc3cccc(N4CCC(N)CC4)c3n2)COC1.O=S(=O)(O)c1ccccc1` [Form II, 1-[2-[5-[(3-Methyl-3-oxetanyl)methoxy]-1H-benzimidazol-1-yl]-8-quinolinyl]-4-piperidinamine monobenzenesulfonate]: the mass uptake entry in series [1] (setting [6]) was “approximately 1.5%”. For the same compound, the “form change during DVS cycling / post-DVS (XRPD)” value in series [1] (monobenzenesulfonate) was “No form change”. In addition, the hygroscopicity entry in series [1] (setting [5]) is on record as “slightly hygroscopic”. In series [3], the “solubility relative to other forms” value was “more soluble in aqueous solutions at neutral pH than the anhydrous Forms I and III”. Moreover, the “onset of thermal degradation” value in series [4] is 165 °C.
On to `CC1(COc2ccc3c(c2)ncn3-c2ccc3cccc(N4CCC(N)CC4)c3n2)COC1.O=S(=O)(O)c1ccccc1` [Form IV, 1-[2-[5-[(3-Methyl-3-oxetanyl)methoxy]-1H-benzimidazol-1-yl]-8-quinolinyl]-4-piperidinamine monobenzenesulfonate], for which the “form change during DVS cycling / post-DVS (XRPD)” value in series [1] (monobenzenesulfonate) is “converts to the hemi-hydrated Form II”. Further, the hygroscopicity result in series [1] (setting [5]) is given as “hygroscopic”. Also, the mass uptake in series [1] (DVS, desolvated form, between 0% and 10% humidity) worked out at 1.5%. Also, in series [1] (DVS, during the first cycle), the “mass loss (desolvation)” value was 9.4%. Besides, the “onset of thermal degradation” value in series [4] (monobenzenesulfonate) stood at 241 °C.
